Like-named read-outs stand apart in the source and are kept apart here.
How the values were obtained:
[1] = test system: BGC-823 human gastric adenocarcinoma cell line; assay: In vitro antitumor activity assay (SRB), BGC-823; format: cell-based; conditions: BGC-823, 72 h, Table 3
From the text: (§1) HeLa human cervical carcinoma cell line, A-549 human non-small cell lung carcinoma cell line, NCI-H2228 human lung carcinoma cell line, NCI-H460 human lung carcinoma cell line, MDA-MB-231 human breast carcinoma cell line, MCF-7 human breast carcinoma cell line, Bel-7402 human hepatic carcinoma cell line, Hep3B human hepatic carcinoma cell line, QGY-7703 human hepatic carcinoma cell line, MV-4-11 human leukemic cell line, DAUDI human leukemic cell line, Jurkat human leukemic cell line, A498 renal carcinoma cell line, LoVo human colon carcinoma cell line, HCT1116 human colon carcinoma cell line, A431 human skin carcinoma cell line, PANC-1 human pancreatic carcinoma cell line, U87-MG human brain carcinoma cell line, SH-SY5Y human brain carcinoma cell line, RPMI-8226 human bone carcinoma cell line, HT1080 human fibrosarcoma cell line, PC-3 human prostatic carcinoma cell line, AGS human gastric adenocarcinoma cell line, and BGC-823 human gastric adenocarcinoma cell line were purchased from the Cell Bank of the Chinese Academy of Sciences.
(§2) The positive control is bufalin (formulated according to the common method), its purity is 98% or more by HPLC-UV and its structure is identified by NMR. The compounds to be tested and the positive control were diluted with normal saline with a concentration gradient of 10^−4 M, 10^−5 M, 10^−6 M, 10^−7 M and 10^−8 M.
(§3) According to cell growth rate, tumor cells in the log phase of growth were seeded into 96-well culture plates at 100 μL per well, and allowed to attach for 24 hours, followed by addition of a test compound or positive control at 10 μL per well. For each concentration, the test was carried out in triplicate wells. […] Finally, Tris solution was added at 150 μL per well, and the absorbance (A) was measured at a wavelength of 515 nm using a microplate reader. The growth inhibition on tumor cell proliferation was calculated according to the following equation:
(§4) Growth Inhibition (%)=[(Absorbance of negative control−Absorbance of blank)−(Absorbance of sample−Absorbance of blank)]/(Absorbance of negative control−Absorbance of blank)×100% […]

[2] = In vivo acute toxicity assay in mouse; conditions: for LD50: in vivo, ip
Protocol: Sample Name: bufalin, II1E-01.HCl
35.8 mg of II1E-01.HCl was weighted, added with 1.78 mL of anhydrous ethanol, and dissolved completely under ultrasonication. 16.02 mL of 5% glucose injection was added and agitated homogeneously. The solution was filtered with a 0.2 μm filtration membrane to obtain a stock solution with a concentration of 2 mg/mL, wherein the content of ethanol is 10%. The highest dosage is 20 mg/kg, calculated based on the administration volume of 0.1 mL/10 g body weight of mouse.

[3] = test system: MV-4-11 human leukemic cell line; assay: In vitro antitumor activity assay (SRB), MV-4-11; format: cell-based; conditions: MV-4-11, 72 h, Table 3
From the text: as §1, §2, §3, §4

[4] = test system: A-549 human non-small cell lung carcinoma cell line; assay: In vitro antitumor activity assay (SRB), A549; format: cell-based
From the text: as §1, §2
(§5) According to cell growth rate, tumor cells in the log phase of growth were seeded into 96-well culture plates at 100 μL per well, and allowed to attach for 24 hours, followed by addition of a test compound or positive control at 10 μL per well. For each concentration, the test was carried out in triplicate wells. Solvent control wells with addition of normal saline into cell culture and a blank well containing only cell culture medium but without cells for zeroing were also included. The tumor cells were incubated for 72 hours at 37° C. under 5% CO2, and then the culture medium (RPMI-1640) was removed. The cells were fixed with 10% cool TCA by incubating for 1 h at 4° C., washed with distilled water for 5 times, and dried naturally in the air. A solution of SRB (Sigma) (4 mg/mL) in 1% glacial acetic acid was added at 100 μL per well, and the cells were stained for 15 minutes at room temperature, and the supernatant was discarded. The plates were washed for 5 times with 1% acetic acid, and dried in air. Finally, Tris solution was added at 150 μL per well, and the absorbance (A) was measured at a wavelength of 515 nm using a microplate reader. The growth inhibition on tumor cell proliferation was calculated according to the following equation:
(§6) Growth Inhibition (%)=[(Absorbance of negative control−Absorbance of blank)−(Absorbance of sample−Absorbance of blank)]/(Absorbance of negative control−Absorbance of blank)×100%
(§7) Drug concentration: 10 μM, 1 μM, 0.1 μM, 10 nM, 1 nM, 0.1 nM.
(§8) IC50 was fitted by GraphPad Prism 4.

[5] = test system: QGY-7703 human hepatic carcinoma cell line; assay: In vitro antitumor activity assay (SRB), QGY7703; format: cell-based; conditions: QGY7703, 72 h, Table 3
From the text: as §1, §2, §3, §4

[6] = test system: PANC-1 human pancreatic carcinoma cell line; assay: In vitro antitumor activity assay (SRB), PANC-1; format: cell-based; conditions: PANC-1, 72 h, Table 3
From the text: as §1, §2, §3, §4

[7] = test system: A431 human skin carcinoma cell line; assay: In vitro antitumor activity assay (SRB), A431; format: cell-based; conditions: A431, 72 h, Table 3
From the text: as §1, §2, §3, §4

[8] = test system: HepG2 human-derived tumor cell line; assay: In vitro antitumor activity assay (SRB), HepG2; format: cell-based; conditions: HepG2, 72 h, Table 3
[9] = test system: NCI-H460 human lung carcinoma cell line; assay: In vitro antitumor activity assay (SRB), NCI-H460; format: cell-based; conditions: NCI-H460, 72 h, Table 3
From the text: as §1, §2, §3, §4

[10] = test system: RPMI-8226 human bone carcinoma cell line; assay: In vitro antitumor activity assay (SRB), RPMI8226; format: cell-based; conditions: RPMI8226, 72 h, Table 3
From the text: as §1, §2, §3, §4

[11] = test system: MCF-7 human breast carcinoma cell line; assay: In vitro antitumor activity assay (SRB), MCF-7; format: cell-based
From the text: as §1, §2, §5, §6, §7, §8

[12] = test system: HCT-116 human-derived tumor cell line; assay: In vitro antitumor activity assay (SRB), HCT-116; format: cell-based; conditions: HCT-116, 72 h, Table 3
From the text: as §1, §2, §3, §4

[13] = test system: AGS human gastric adenocarcinoma cell line; assay: In vitro antitumor activity assay (SRB), AGS; format: cell-based; conditions: 72 h, Table 3
From the text: as §1, §2, §3, §4

[14] = test system: PC-3 human prostatic carcinoma cell line; assay: In vitro antitumor activity assay (SRB), PC-3; format: cell-based
From the text: as §1, §2, §5, §6, §7, §8

[15] = test system: Hep3B human hepatic carcinoma cell line; assay: In vitro antitumor activity assay (SRB), Hep3B; format: cell-based; conditions: 72 h, Table 3
From the text: as §1, §2, §3, §4

[16] = test system: A498 renal carcinoma cell line; assay: In vitro antitumor activity assay (SRB), A498; format: cell-based, human; conditions: A498, 72 h, Table 3
From the text: as §1, §2, §3, §4

[17] = test system: HT1080 human fibrosarcoma cell line; assay: In vitro antitumor activity assay (SRB), HT1080; format: cell-based; conditions: HT1080, 72 h, Table 3
From the text: as §1, §2, §3, §4

[18] = test system: U87-MG human brain carcinoma cell line; assay: In vitro antitumor activity assay (SRB), U87-MG; format: cell-based; conditions: 72 h, Table 3
From the text: as §1, §2, §3, §4

Compound: C[C@]12CC[C@H](OC(=O)NC3CCNCC3)C[C@H]1CC[C@@H]1[C@@H]2CC[C@]2(C)[C@@H](c3ccc(=O)oc3)CC[C@]12O.Cl [II1E-01•HCl]
- IC50 [1]: 0.56 ± 0.07 nM
- LD50 of intraperitoneal administration, female mouse ([2]; intraperitoneal, female mouse): about 18.21 mg/kg
- LD50 of intraperitoneal administration, male mouse ([2]; intraperitoneal, male mouse): about 14.75 mg/kg
- LD50 of intravenous administration, female mouse ([2]; intravenous, female mouse): about 16.51 mg/kg
- LD50 of intravenous administration, male mouse ([2]; intravenous, male mouse): about 13.60 mg/kg
- in vivo acute toxicity in mouse compared with bufalin, in words ([2]; mouse): lower in vivo acute toxicity in mouse than bufalin
- IC50 [3]: 0.64 ± 0.11 nM
- IC50 ([4]; A549, 72 h, Table 3, read-out: IC50 (72 h), A549): 0.4 ± 0.22 nM
- IC50 [5]: 1.72 ± 0.08 nM
- IC50 [6]: 0.57 ± 0.06 nM
- IC50 [7]: 3.31 ± 0.09 nM
- IC50 [8]: 0.33 ± 0.02 nM
- IC50 [9]: 0.67 ± 0.03 nM
- IC50 [10]: 1.71 ± 0.03 nM
- IC50 ([11]; MCF-7, 72 h, Table 3, read-out: IC50 (72 h), MCF-7): 10.8 ± 1.08 nM
- IC50 [12]: 2.13 ± 0.28 nM
- IC50 [13]: 9.35 ± 0.53 nM
- IC50 ([14]; PC-3, 72 h, Table 3, read-out: IC50 (72 h), PC-3): 0.3 ± 0.08 nM
- IC50 [15]: > 1000 nM
- IC50 [16]: 0.37 ± 0.05 nM
- IC50 [17]: 2.34 ± 0.1 nM
- IC50 [18]: 1.98 ± 0.3 nM

Compound: C[C@]12CC[C@H](O)C[C@H]1CC[C@@H]1[C@@H]2CC[C@]2(C)[C@@H](c3ccc(=O)oc3)CC[C@]12O [bufalin, reference compound]
- IC50 ([1]; Homo sapiens): 9.06 ± 0.37 nM
- LD50 ([2]; intraperitoneal, female mouse, read-out: LD50 of intraperitoneal administration, female mouse): ~2.8 mg/kg
- LD50 ([2]; intraperitoneal, male mouse, read-out: LD50 of intraperitoneal administration, male mouse): ~2.4 mg/kg
- IC50 ([3]; Homo sapiens, MV4-11): 6.26 ± 2.22 nM
- IC50 ([4]; Homo sapiens, A549, 72 h, Table 3, read-out: IC50 (72 h), A549): 8.74 ± 2.52 nM
- IC50 ([4]; Homo sapiens, A549, Table 2, read-out: IC50, inhibition of cell proliferation, A549): 6.53 ± 1.64 nM
- IC50 ([5]; Homo sapiens, QGY-7703): 12.8 ± 0.47 nM
- IC50 ([6]; Homo sapiens): 9.88 ± 0.27 nM
- IC50 ([7]; Homo sapiens, A-431): 26.6 ± 5.35 nM
- IC50 ([8]; Homo sapiens): 6.02 ± 0.71 nM
- IC50 ([9]; Homo sapiens): 6.89 ± 0.87 nM
- IC50 ([10]; Homo sapiens, RPMI-8226): 13.5 ± 0.82 nM
- IC50 ([11]; Homo sapiens, MCF7, MCF-7, 72 h, Table 3, read-out: IC50 (72 h), MCF-7): 45.9 ± 5.18 nM
- IC50 ([11]; Homo sapiens, MCF7, MCF-7, Table 2, read-out: IC50, inhibition of cell proliferation, MCF-7): 28.8 ± 3.71 nM
- IC50 ([12]; Homo sapiens): 9.69 ± 0.64 nM
- IC50 ([13]; Homo sapiens): 51.8 ± 1.34 nM
- IC50 ([14]; Homo sapiens, Prostatic carcinoma cell, PC-3, 72 h, Table 3, read-out: IC50 (72 h), PC-3): 5 ± 0.45 nM
- IC50 ([14]; Homo sapiens, Prostatic carcinoma cell, PC-3, Table 2, read-out: IC50, inhibition of cell proliferation, PC-3): 17.3 ± 2.76 nM
- IC50 ([15]; Homo sapiens): > 1000 nM
- IC50 ([16]; Homo sapiens): 6.41 ± 0.75 nM
- IC50 ([17]; Homo sapiens, HT-1080): 11.3 ± 0.38 nM
- IC50 ([18]; Homo sapiens, U-87 MG): 13 ± 1.74 nM
